From PubChem BioAssay AID1902 (Broad Institute, 2009)
Active and inactive are the calls of the source.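 How the source made its calls: active means EC50 no more than a set limit of log units above the highest dose; inactive means the rest.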

Molecular target: S. pyogenes SKKanGAS, kanamycin survival, BacTiterGlo, 6 h
Experiment: S. pyogenes SKKanGAS kanamycin growth inhibitors – SKKanGAS strain, luminescence, dose confirmation, streptokinase promoter inhibitor project, dose response (AID 1902);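 further: lower survival reflects blocked streptokinase promoter driving kanamycin resistance gene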

| Structure (SMILES) | EC50 |
| --- | --- |
| CCCCCCC(=O)N/N=C/c1c(O)n(C(C)CC)c(=S)[nH]c1=O (stereo not given) | 3.22 µM |
| CCCCCCCCCCC[N+](C)(C)CC/C=C1/c2ccccc2Sc2ccc(Cl)cc21 | 2.4 µM |
| CN=C(Nc1cc(Cl)ccc1Cl)SC1CC(=O)N(c2ccc(C(=O)OC)cc2)C1=O (stereo not given) | 7.4 µM |
| O=C(Nc1cccc(-c2ccc(N3CCOCC3)nn2)c1)c1ccccc1Cl | > 15 µM (inactive) |
| Cc1cc([N+](=O)[O-])cc(/C=N/n2c(C)nc3ccccc3c2=O)c1O | 4.07 µM |
| Cc1nc(N2CCC(C)CC2)c2c(C)c(C(=O)Nc3ccccc3C(F)(F)F)sc2n1 | 6.04 µM |
| CCNc1nc(Oc2c(Cl)cccc2Cl)cc(C(F)(F)F)n1 | 6.58 µM |
| O=C(N/N=C/c1cc(Cl)cc([N+](=O)[O-])c1O)C(O)(c1ccccc1)c1ccccc1 | 3.38 µM |
| FC(F)(F)c1cccc(-c2nc3nc(Cl)c(Cl)nc3[nH]2)c1 | 6.58 µM |
| CCc1nnc(NS(=O)(=O)c2ccc(NCc3cc(Cl)cc(Cl)c3O)cc2)s1 | 14.2 µM |
| COc1cc(/C(C)=C/c2ccccc2)c2c(c1)oc1ccccc12 | 4.04 µM |
| Clc1ccc2c(N/N=C/c3ccc(Br)cc3)ccnc2c1 | 3.14 µM |
| CC[n+]1c(/C=C/N(C)c2ccccc2)n(-c2ccccc2)c2ccc(-c3nc4ccccc4s3)cc21 | 3.61 µM |
| CCCn1c(=O)c(C(=O)Nc2ncccc2C)c(O)c2ccccc21 | 5.16 µM |
| O=C(Nc1cc(Cl)ccc1-n1cncn1)c1ccc([N+](=O)[O-])o1 | 6.73 µM |
| C/C(=N\NC(=S)NCC(C)(C)C)c1cc(F)cc(F)c1O | 2.65 µM |
| CC(C)C(Sc1nc(-c2ccccc2)cc(-c2ccccc2)c1C#N)C(=O)O (stereo not given) | 2.04 µM |
| COc1cc(Cc2cc(N)nc(N)n2)cc(OC)c1OC | 4.31 µM |
| O=C(C[n+]1ccc2ccccc2c1)Nc1cc(C(F)(F)F)ccc1Cl | > 15 µM (inactive) |
| Cc1cc(NC(=O)c2cnccn2)no1 | > 15 µM (inactive) |

| Structure (SMILES) | EC50 |
| --- | --- |
| Cc1[nH]c2ccccc2c1C(=O)COC(=O)c1ccc2c(=O)n3c(nc2c1)CCC3 | 1.52 µM |
| Cc1cccc(N=Nc2c(C)nn(-c3ccccc3)c2N)c1C | 11.8 µM |
| CCCCn1c(=O)c(C(=O)NCc2ccccc2)c(O)c2ccccc21 | 6.85 µM |
| CC(Oc1ccccc1)C(=O)NC1C(=O)N2C1SC(C)(C)C2C(=O)O (stereo not given) | 0.114 µM |
| O=C(/C=C/c1c[nH]c2ccccc12)c1c(O)n(CCc2ccccc2)c(=O)[nH]c1=O | 3.11 µM |
| C#CCOCCOCCOCCNc1nc(N2CCN(C(=O)CCCCCCCCCCNC(=O)[C@H](CCCCN)n3cc(C[C@@H](C)CC)nn3)CC2)nc(N2CCN(C(=O)CCCCCCCCCCNC(=O)[C@H](CCCCN)n3cc(C[C@@H](C)CC)nn3)CC2)n1 | 5.16 µM |
| CCc1nnc(NC(=O)c2sc3nc4cc(C)ccc4cc3c2N)s1 | 3.77 µM |
| CCCCCC/C(=N/O)c1ccccn1 | 15.4 µM |
| CCOC(=O)c1ccc(-n2c(O)c(/C=N/NC(=O)C3COc4ccccc4O3)c3ccccc3c2=O)cc1 (stereo not given) | 1.55 µM |
| Cc1ccc(C2CC(c3cccs3)=NN2C(=O)c2ccc(Br)o2)cc1 (stereo not given) | 1.94 µM |
| O=C(CN1CCc2ccccc2C1)Nc1ccccc1N1CCCCCC1 | 2.42 µM |
| Cc1cc(/C=C2\SC(=O)NC2=O)c(C)n1-c1ccc(N2CCOCC2)cc1 | 1.58 µM |
| CN(C)c1nc(N/N=C/c2ccccc2O)nc(Nc2ccc(F)cc2)n1 | 3.79 µM |
| CCCc1nc2ccccc2c(=O)n1/N=C/c1c(C)[nH]n(-c2ccc(C)cc2)c1=O | 1.23 µM |
| O=C(COc1ccc(Cl)cc1Cl)Nc1ccc(C(=O)Nc2ccccc2C(=O)O)cc1 | 2.3 µM |
| Cc1cccc(C(=O)NC(C(=O)Nc2nc(-c3ccccn3)cs2)C(C)C)c1 (stereo not given) | 5.46 µM |
| Cc1nnc(SCC2=C(C(=O)O)N3C(=O)C(NC(=O)C(C)n4nc(C(F)(F)F)cc4C)C3SC2)s1 (stereo not given) | 0.14 µM |
| COc1ccc(CN(C)S(=O)(=O)c2ccc3c(c2)OCCO3)cc1 | > 15 µM (inactive) |
| COc1ccc(C(=O)NCC(=O)OCC(=O)N2N=C(c3ccc(Cl)cc3)CC2c2ccco2)cc1OC (stereo not given) | 15.6 µM |
| CC(C)(C)c1ccc(OCC(O)CS(=O)(=O)c2ccccn2)cc1 (stereo not given) | > 15 µM (inactive) |
